From paper PMC12073438, “Stereoselectivity of In Vivo Processes and Bioactivity of Farrerol Enantiomers” (Molecules, 2025)

Tests used:
[1] = target: CYP2E1 (Homo sapiens, UniProt P05181); assay: CYP inhibition in liver microsomes (chlorzoxazone); format: in vitro ADME; conditions: CYP 2E1, marker substrate chlorzoxazone
Procedure: (§1) A liver microsome working solution (20 mg/mL) contained potassium phosphate buffer (0.1 M, pH 7.4), hepatic microsomes and marker substrate solution, which phenacetin, diclofenic acid, S-mephenytoinwer, dextromethorphan, midazolam, coumarin and chlorzoxazone used as substrates for […], CYP2C9, CYP2C19, CYP2D6, CYP3A4/5, CYP2A6 and CYP2E1, respectively. In brief, 238.5 µL of liver microsome working solution was placed in a 1 mL EP tube. […] The reaction was started by injecting NADPH (1 mM), and the resulting mixture was incubated at 37 °C for 10 min. After centrifuging at 4000 rpm for 15 min, the supernatant was transferred and analyzed using LC-MS/MS to detect the corresponding metabolites. Each incubation was conducted in triplicate (n = 3).
(§2) An API 4000 LC/tandem mass spectrometry was used to analyze the concentration of metabolites of various chemical agents using a validated mode. An Atlantis T3 column (2.1 mm × 50 mm, 5 μm) was utilized, employing mobile phases consisting of a 0.1% formic acid solution (A) and a 0.1% acetonitrile formate solution (B). […] MRM was utilized to quantify each metabolite, detecting the following transitions: m/z 152.1/110 for acetaminophen, 312.1/230.0 for 4′-Hydroxydiclofenac, 235.0/150.0 for 4′-hydroxymephentoin, 258.2/199.1 for Dextrorphan, 342.1/203.0 for 1′-hydroxymidazolam, 161.1/133.1 for hydroxycoumarin, and 184.0/120.0 for 6-hydroxyclozoxadone.

[2] = target: CYP2D6 (Homo sapiens, UniProt P10635); assay: CYP inhibition in liver microsomes (dextromethorphan); format: in vitro ADME; conditions: CYP 2D6, marker substrate dextromethorphan
Chain of CYP2D6 (P10635 whole entry): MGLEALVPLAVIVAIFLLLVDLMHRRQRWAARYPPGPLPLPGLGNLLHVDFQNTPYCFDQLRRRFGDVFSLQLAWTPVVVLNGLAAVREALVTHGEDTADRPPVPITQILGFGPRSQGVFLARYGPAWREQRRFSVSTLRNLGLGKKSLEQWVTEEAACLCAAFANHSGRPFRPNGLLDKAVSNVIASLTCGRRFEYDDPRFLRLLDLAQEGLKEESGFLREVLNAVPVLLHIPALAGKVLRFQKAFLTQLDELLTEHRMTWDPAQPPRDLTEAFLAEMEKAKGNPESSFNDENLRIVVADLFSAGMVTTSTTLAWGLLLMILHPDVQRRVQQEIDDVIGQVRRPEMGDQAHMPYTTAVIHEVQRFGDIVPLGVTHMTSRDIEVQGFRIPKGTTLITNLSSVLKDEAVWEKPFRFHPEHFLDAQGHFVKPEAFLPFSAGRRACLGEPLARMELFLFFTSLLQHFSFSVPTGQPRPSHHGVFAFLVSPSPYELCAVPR
Procedure: as §1, §2

Chain of CYP2E1 (P05181 whole entry): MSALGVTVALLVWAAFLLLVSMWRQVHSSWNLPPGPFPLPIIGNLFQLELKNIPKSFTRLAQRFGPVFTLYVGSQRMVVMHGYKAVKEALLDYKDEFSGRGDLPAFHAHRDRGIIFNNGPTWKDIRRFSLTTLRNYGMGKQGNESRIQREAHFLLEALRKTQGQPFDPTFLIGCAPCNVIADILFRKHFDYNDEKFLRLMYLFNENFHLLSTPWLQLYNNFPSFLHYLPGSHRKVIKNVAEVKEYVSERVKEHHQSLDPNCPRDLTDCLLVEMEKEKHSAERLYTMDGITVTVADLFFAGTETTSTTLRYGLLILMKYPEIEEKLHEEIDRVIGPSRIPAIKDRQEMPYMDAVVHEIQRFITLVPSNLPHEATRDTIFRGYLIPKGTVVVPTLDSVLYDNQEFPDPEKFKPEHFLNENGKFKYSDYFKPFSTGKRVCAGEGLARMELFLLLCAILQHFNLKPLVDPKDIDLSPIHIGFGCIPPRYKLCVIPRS

SMILES	IC50 [1]	IC50 [2]
Cc1c(O)c(C)c2c(c1O)C(=O)CC(c1ccc(O)cc1)O2 (single isomer, unassigned; (+)) [(+)-farrerol, 2,3-dihydro-5,7-dihydroxy-2-(4-hydroxyphenyl)-6,8-dimethyl-4-benzopyrone]	> 50 µM	> 50 µM
Cc1c(O)c(C)c2c(c1O)C(=O)CC(c1ccc(O)cc1)O2 (single isomer, unassigned; (-)) [(−)-farrerol, 2,3-dihydro-5,7-dihydroxy-2-(4-hydroxyphenyl)-6,8-dimethyl-4-benzopyrone]	> 50 µM	> 50 µM
